IC50 and Ki data for 3 compounds are collected here from ChEMBL document CHEMBL1141131, “A selective estrogen receptor modulator designed for the treatment of uterine leiomyoma with unique tissue specificity for uterus and ovaries in rats” (J Med Chem, 2005).

Experiment [1] deals with T1, Estrogen receptor (Homo sapiens, UniProt Q92731+P03372). To be noted: mcf7.
Description: Half maximal inhibitory concentration against estrogen-induced proliferation of MCF-7 breast cells by 10 pM E2
For experiment [2], the target named is T1, Estrogen receptor. To be noted: ishikawa.
Description: Inhibitory concentration against estrogen-induced proliferation of Ishikawa uterine cells by 1 nM E2
Experiment [3] has as its target T2, Estrogen receptor (Rattus norvegicus, UniProt P06211).
T2 sequence (P06211 whole entry): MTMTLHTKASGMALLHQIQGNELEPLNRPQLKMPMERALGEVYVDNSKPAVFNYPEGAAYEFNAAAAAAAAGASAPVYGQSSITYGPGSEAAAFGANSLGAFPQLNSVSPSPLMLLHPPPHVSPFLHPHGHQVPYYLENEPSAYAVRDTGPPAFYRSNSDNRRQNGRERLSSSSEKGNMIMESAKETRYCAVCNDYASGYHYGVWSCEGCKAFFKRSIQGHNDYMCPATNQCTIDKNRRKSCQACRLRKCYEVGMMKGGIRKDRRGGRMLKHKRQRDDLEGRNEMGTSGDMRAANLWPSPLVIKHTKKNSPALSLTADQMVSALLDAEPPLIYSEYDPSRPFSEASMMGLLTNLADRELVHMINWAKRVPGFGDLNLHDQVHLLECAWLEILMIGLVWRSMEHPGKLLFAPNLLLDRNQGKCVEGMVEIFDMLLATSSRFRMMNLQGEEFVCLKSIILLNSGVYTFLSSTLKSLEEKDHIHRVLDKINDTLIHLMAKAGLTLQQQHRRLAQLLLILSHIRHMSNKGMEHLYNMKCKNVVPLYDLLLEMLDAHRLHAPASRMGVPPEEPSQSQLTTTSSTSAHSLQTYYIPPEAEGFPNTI
Description: Binding affinity for rat estrogen receptor alpha

Another experiment concerns the target Estrogen receptor beta (Rattus norvegicus, UniProt Q62986).

Molecules are shown by their SMILES.

Estrogen receptor beta, sequence (Q62986 whole entry): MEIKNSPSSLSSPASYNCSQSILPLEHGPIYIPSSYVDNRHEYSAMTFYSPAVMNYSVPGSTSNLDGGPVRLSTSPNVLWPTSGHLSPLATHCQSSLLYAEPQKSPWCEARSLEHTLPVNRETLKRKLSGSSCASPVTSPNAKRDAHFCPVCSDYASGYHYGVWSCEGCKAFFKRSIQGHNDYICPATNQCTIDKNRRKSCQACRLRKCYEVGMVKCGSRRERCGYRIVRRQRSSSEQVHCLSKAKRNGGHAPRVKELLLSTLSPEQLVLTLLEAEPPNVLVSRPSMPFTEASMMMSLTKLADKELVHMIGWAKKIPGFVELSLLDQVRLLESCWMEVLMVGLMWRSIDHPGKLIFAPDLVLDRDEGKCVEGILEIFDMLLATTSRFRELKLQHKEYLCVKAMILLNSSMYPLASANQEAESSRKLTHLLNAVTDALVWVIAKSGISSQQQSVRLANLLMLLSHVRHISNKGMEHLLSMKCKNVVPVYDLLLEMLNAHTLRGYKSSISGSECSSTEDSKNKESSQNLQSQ
Description for Estrogen receptor beta: Binding affinity for rat estrogen receptor beta

As for `Cl.Oc1ccc2c(Oc3ccc(OCCN4CCCCC4)cc3)c(-c3ccc(F)cc3)ccc2c1`, the results for the IC50 against Estrogen receptor [1] and on Estrogen receptor [2] were 0.34 nM and 3.18 nM, respectively. The Ki was 0.25 nM on Estrogen receptor [3] and 0.3 nM on Estrogen receptor beta.
In the same order, the values of `CS(=O)(=O)c1ccc(-c2ccc3cc(O)ccc3c2Cc2ccc(OCCN3CCCCC3)cc2)cc1.Cl` are 3.4 nM, 4.78 nM, 1.15 nM and 24.1 nM.
In the same order, the values of `Cl.Oc1ccc(-c2ccc3cc(O)ccc3c2Cc2ccc(OCCN3CCCCC3)cc2)cc1` are 0.2 nM, 1.14 nM, 0.2 nM and 0.7 nM.

Usually IC50 stands for the concentration needed to halve the response being measured. Low values mean greater potency in that assay, high ones weaker potency in that assay. Broadly, the Ki is the equilibrium dissociation constant of an inhibitor or competing ligand from its target. A high value points to a looser hold on the target.
